Data as given in the NIST ThermoML archive (doi:10.1016/j.fluid.2012.12.028).
Numbers after ± are expanded uncertainties.

Settings: Liquid, Ebulliometric method (Recirculating still)

In the case of CON=C(C)C [propan-2-one O-methyl oxime], the “vapor or sublimation pressure” value (307.8 K) is reported as 21.3 ± 0.7 kPa, the “vapor or sublimation pressure” value (312.4 K) is reported as 26.3 ± 0.8 kPa and the “vapor or sublimation pressure” value (316.6 K) is reported as 32.3 ± 0.8 kPa. For the same compound, the “vapor or sublimation pressure” value (319.6 K) was 36.3 ± 0.9 kPa, the “vapor or sublimation pressure” value (322.9 K) was 42.3 ± 1 kPa and the “vapor or sublimation pressure” value (327.6 K) was 51.3 ± 1 kPa. For the same compound, the “vapor or sublimation pressure” value (330 K) was 56.3 ± 1.1 kPa, the “vapor or sublimation pressure” value (332.2 K) was 61.3 ± 1.1 kPa and the “vapor or sublimation pressure” value (334.2 K) was 66.3 ± 1.2 kPa. For the same compound, the “vapor or sublimation pressure” value (336.1 K) was 71.3 ± 1.3 kPa, the “vapor or sublimation pressure” value (337.7 K) was 76.3 ± 1.3 kPa and the “vapor or sublimation pressure” value (339.6 K) was 81.3 ± 1.3 kPa. The “vapor or sublimation pressure” value (341 K) was 86.3 ± 1.5 kPa, the “vapor or sublimation pressure” value (342.6 K) was 91.3 ± 1.4 kPa and the “vapor or sublimation pressure” value (344.1 K) was 96.3 ± 1.5 kPa.
